# Laboratory results from patent publication US10011585B2, “Factor XIa inhibitors” (Merck Sharp & Dohme Corp., priority 2014, dated 2018).
# Where two headings read alike, the source gives them in different places.
# How the values were obtained:
# [1] = biological target: T1, human Factor XIa (Homo sapiens, UniProt P03951); assay: Factor XIa Assay; assay type: biochemical; conditions: read-out: F11a IC50
# T1 construct: purified human Factor XIa; purchased Sekisui Diagnostics
# Description: The effectiveness of a compound of the present invention as an inhibitor of Coagulation Factor XIa can be determined using a relevant purified serine protease, and an appropriate synthetic substrate. The rate of hydrolysis of the chromogenic or fluorogenic substrate by the relevant serine protease was measured both in the absence and presence of compounds of the present invention. Assays were conducted at room temperature or at 37° C. […] A decrease in the rate of fluorescence change in the presence of inhibitor is indicative of enzyme inhibition. Such methods are known to one skilled in the art. […]
# Factor XIa determinations were made in 50 mM HEPES buffer at pH 7.4 containing 150 mM NaCl, 5 mM CaCl2, and 0.1% PEG 8000 (polyethylene glycol; JT Baker or Fisher Scientific). Determinations were made using purified human Factor XIa at a final concentration of 40 pM (Sekisui Diagnostics) and the synthetic substrate, Z-Gly-Pro-Arg-AFC, TFA salt (Sigma #C0980) at a concentration of 100 μM.
# Times required to achieve equilibration between enzyme and inhibitor were determined in control experiments. Initial velocities of product formation in the absence (Vo) or presence of inhibitor (Vi) were measured. Assuming competitive inhibition, and that unity is negligible compared Km/[S], [I]/e, and [I]/e (where [S], [I], and e respectively represent the total concentrations, of substrate, inhibitor and enzyme), the equilibrium constant (Ki) for dissociation of the inhibitor from the enzyme can be obtained from the dependence of Vo/Vi on [I] shown in the following equation.
# [2] = biological target: T2, Human plasma kallikrein (Homo sapiens, UniProt P03952); assay: Kallikrein Assay; assay type: biochemical; conditions: Plasma Kallekrein IC50, read-out: PK IC50
# T2 construct: yields a heavy chain (371 amino acids) and a light chain (248 amino acids); purchased Enzyme Research Laboratories
# Description: The effectiveness of a compound of the present invention as an inhibitor of Kallikrein can be determined using a relevant purified serine protease, and an appropriate synthetic substrate. The rate of hydrolysis of the chromogenic or fluorogenic substrate by the relevant serine protease was measured both in the absence and presence of compounds of the present invention. Assays were conducted at room temperature or at 37° C. […] A decrease in the rate of fluorescence change in the presence of inhibitor is indicative of enzyme inhibition. Such methods are known to one skilled in the art. The results of this assay are expressed as the inhibitory constant, Ki.
# Kallikrein determinations were made in 50 mM HEPES buffer at pH 7.4 containing 150 mM NaCl, 5 mM CaCl2, and 0.1% PEG 8000 (polyethylene glycol; Fisher Scientific). Determinations were made using purified Human plasma kallikrein at a final concentration of 0.5 nM (Enzyme Research Laboratories) and the synthetic substrate, Acetyl-K—P—R-AFC (Sigma # C6608) at a concentration of […].
# Times required to achieve equilibration between enzyme and inhibitor were determined in control experiments. The reactions were performed under linear progress curve conditions and fluorescence increase measured at 405 Ex/510 Em nm. […] IC50 was determined by inflection point from a four parameter logistic curve fit. Ki was calculated using the Cheng Prusoff equation, Ki=IC50/(1+([S]/Km)).
# T2 sequence (P03952 391-638 limits assumed): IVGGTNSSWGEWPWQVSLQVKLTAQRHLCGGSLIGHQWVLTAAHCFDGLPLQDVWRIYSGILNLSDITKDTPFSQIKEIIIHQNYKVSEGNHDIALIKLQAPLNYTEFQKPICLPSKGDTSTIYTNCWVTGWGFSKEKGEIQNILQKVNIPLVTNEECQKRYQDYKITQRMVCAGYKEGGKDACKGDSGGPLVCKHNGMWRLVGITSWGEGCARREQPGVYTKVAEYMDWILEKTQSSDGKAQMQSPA
# T2 sequence (P03952 20-390 partner limits assumed): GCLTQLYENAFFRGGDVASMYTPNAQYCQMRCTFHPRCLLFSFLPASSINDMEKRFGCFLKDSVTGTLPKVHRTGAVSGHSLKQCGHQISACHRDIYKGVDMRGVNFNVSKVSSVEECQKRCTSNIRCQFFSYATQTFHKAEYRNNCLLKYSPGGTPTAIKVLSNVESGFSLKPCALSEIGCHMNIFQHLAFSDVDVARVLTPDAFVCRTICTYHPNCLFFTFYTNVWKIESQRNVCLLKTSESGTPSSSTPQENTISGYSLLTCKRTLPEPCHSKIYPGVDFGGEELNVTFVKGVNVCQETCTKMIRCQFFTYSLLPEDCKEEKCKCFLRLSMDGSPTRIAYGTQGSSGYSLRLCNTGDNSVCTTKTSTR
# T1 sequence (P03951 388-625 limits assumed): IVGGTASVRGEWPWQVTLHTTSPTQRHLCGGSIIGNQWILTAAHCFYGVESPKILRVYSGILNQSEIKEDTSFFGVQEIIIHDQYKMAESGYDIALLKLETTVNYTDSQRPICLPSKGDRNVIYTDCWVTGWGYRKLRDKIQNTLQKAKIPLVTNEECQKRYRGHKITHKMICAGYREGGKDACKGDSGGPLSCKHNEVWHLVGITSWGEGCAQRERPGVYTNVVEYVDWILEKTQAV
# T1 sequence (P03951 19-387 partner limits assumed): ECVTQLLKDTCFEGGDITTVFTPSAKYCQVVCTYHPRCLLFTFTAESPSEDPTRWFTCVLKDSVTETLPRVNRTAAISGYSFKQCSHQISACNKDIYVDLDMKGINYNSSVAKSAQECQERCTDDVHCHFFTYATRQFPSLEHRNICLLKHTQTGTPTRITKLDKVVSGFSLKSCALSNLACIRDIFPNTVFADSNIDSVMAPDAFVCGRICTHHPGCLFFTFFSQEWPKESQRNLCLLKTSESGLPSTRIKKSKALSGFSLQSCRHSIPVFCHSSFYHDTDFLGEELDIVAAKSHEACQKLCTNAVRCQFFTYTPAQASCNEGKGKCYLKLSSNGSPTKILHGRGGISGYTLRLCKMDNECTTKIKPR
IC50 ([1]; Examples 20-28 table) [nM],IC50 ([2]; Examples 1-19 table) [nM],IC50 ([1]; Examples 1-19 table) [nM],IC50 ([2]; Examples 20-28 table) [nM],SMILES
79.1,,,,"O=C(CC(c1nc2ccc(F)cc2[nH]1)c1ccc(-c2cc(Cl)ccc2-n2cnnn2)c[n+]1[O-])N1CCC1 (single isomer, unassigned) [Example 27]"
1000,,,,"NC(=O)c1ccc(Cl)cc1-c1ccc([C@H](Cc2ccccc2)c2nc3cc(F)ccc3[nH]2)[n+]([O-])c1 [Example 23, (S)-5-(2-carbamoyl-5-chlorophenyl)-2-(1-(5-fluoro-1H-benzo[d]imidazol-2-yl)-2-phenylethyl)pyridine 1-oxide]"
154,,,,"NC(=O)c1ccc(Cl)cc1-c1ccc([C@@H](Cc2ccccc2)c2nc3cc(F)ccc3[nH]2)[n+]([O-])c1 [Example 22, (R)-5-(2-carbamoyl-5-chlorophenyl)-2-(1-(5-fluoro-1H-benzo[d]imidazol-2-yl)-2-phenylethyl)pyridine 1-oxide]"
,216,3.41,,"O=C(O)c1ccc2[nH]c([C@@H](Cc3ccccc3)c3ccc(-c4cc(Cl)ccc4-n4cnnn4)c[n+]3[O-])nc2c1 [Example 5, (S)-2-(1-(5-Carboxy-1H-benzo[d]imidazol-2-yl)-2-phenylethyl)-5-(5-chloro-2-(1H-tetrazol-1-yl)phenyl)pyridine 1-oxide]"
93.7,,,1810,"O=C(CC(c1nc2ccc(F)cc2[nH]1)c1ccc(-c2cc(Cl)ccc2-n2cnnn2)c[n+]1[O-])N1CCC1 (single isomer, unassigned) [Example 28]"
14.2,,,,"O=C(O)c1ccc2nc(C(CC3CC3)c3ccc(-c4cc(Cl)ccc4-n4cnnn4)c[n+]3[O-])[nH]c2c1 (racemic) [Example 24, 2-(1-(5-carboxy-1H-benzo[d]imidazol-2-yl)-2-cyclopropylethyl)-5-(5-chloro-2-(1H-tetrazol-1-yl)phenyl)pyridine 1-oxide]"
,182,138,,"O=C(O)c1ccc2[nH]c(C(Cc3ccccc3)c3ccc(-c4c(F)ccc(Cl)c4F)c[n+]3[O-])nc2c1 (stereo in doubt) [Example 3, (R)-2-(1-(5-Carboxy-1H-benzo[d]imidazol-2-yl)-2-phenylethyl)-5-(3-chloro-2,6-difluorophenyl)pyridine 1-oxide]"
,295,3.28,,"[O-][n+]1cc(-c2cc(Cl)ccc2-n2cnnn2)ccc1C(Cc1ccccc1)c1nc2cc(F)ccc2[nH]1 (stereo in doubt) [Example 9, (R)-5-(5-chloro-2-(1H-tetrazol-1-yl)phenyl)-2-(1-(5-fluoro-1H-benzo[d]imidazol-2-yl)-2-phenylethyl)pyridine 1-oxide]"
,151,1.33,,N#Cc1ccc2[nH]c(C(Cc3ccccc3)c3ccc(-c4cc(Cl)ccc4-n4cnnn4)c[n+]3[O-])nc2c1 (racemic) [Example 16]
,,1880,,N#Cc1ccc2[nH]c(C(Cc3ccccc3)c3ccc(-c4c(F)ccc(Cl)c4F)c[n+]3[O-])nc2c1 (racemic) [Example 13]
,186,1.15,,"[O-][n+]1cc(-c2cc(Cl)ccc2-n2cnnn2)ccc1C(Cc1ccccc1)c1nc2cc(F)ccc2[nH]1 (racemic) [Example 7, 5-(5-chloro-2-(1H-tetrazol-1-yl)phenyl)-2-(1-(5-fluoro-1H-benzo[d]imidazol-2-yl)-2-phenylethyl)pyridine 1-oxide]"
,124,1.33,,"[O-][n+]1cc(-c2cc(Cl)ccc2-n2cnnn2)ccc1C(Cc1ccccc1)c1nc2cc(F)ccc2[nH]1 (stereo in doubt) [Example 8, (S)-5-(5-chloro-2-(1H-tetrazol-1-yl)phenyl)-2-(1-(5-fluoro-1H-benzo[d]imidazol-2-yl)-2-phenylethyl)pyridine 1-oxide]"
,245,4.7,,[O-][n+]1cc(-c2cc(Cl)ccc2-n2cnnn2)ccc1[C@@H](Cc1ccc(F)cc1)c1nc2cc(F)ccc2[nH]1 [Example 15]
,,146,,O=C(O)c1ccc2[nH]c([C@@H](Cc3ccc(F)cc3)c3ccc(-c4c(F)ccc(Cl)c4F)c[n+]3[O-])nc2c1 [Example 11]
54,,,2740,O=C(O)c1ccc2[nH]c(C(Cc3ccccc3)c3ccc(-c4cc(Cl)ccc4C(=O)O)c[n+]3[O-])nc2c1 (racemic) [Example 25]
,28.4,0.51,,"O=C(O)c1ccc2[nH]c([C@H](Cc3ccccc3)c3ccc(-c4cc(Cl)ccc4-n4cnnn4)c[n+]3[O-])nc2c1 [Example 6, (R)-2-(1-(5-Carboxy-1H-benzo[d]imidazol-2-yl)-2-phenylethyl)-5-(5-chloro-2-(1H-tetrazol-1-yl)phenyl)pyridine 1-oxide]"
11.8,,,169,"[O-][n+]1cc(-c2c(-n3cnnn3)ccc(Cl)c2F)ccc1[C@H](Cc1ccccc1)c1nc2cc(F)ccc2[nH]1 [Example 21, 2-[(1S)-1-{5-[3-chloro-2-fluoro-6-(1H-tetrazol-1-yl)phenyl]-1-oxidopyridin-2-yl}-2-phenylethyl]-5-fluoro-1H-benzimidazole]"
,52.7,0.45,,"O=C(O)c1ccc2[nH]c(C(Cc3ccccc3)c3ccc(-c4cc(Cl)ccc4-n4cnnn4)c[n+]3[O-])nc2c1 (racemic) [Example 4, 2-(1-(5-Carboxy-1H-benzo[d]imidazol-2-yl)-2-phenylethyl)-5-(5-chloro-2-(1H-tetrazol-1-yl)phenyl)pyridine 1-oxide]"
1.82,,,64.8,"[O-][n+]1cc(-c2c(-n3cnnn3)ccc(Cl)c2F)ccc1[C@@H](Cc1ccccc1)c1nc2cc(F)ccc2[nH]1 [Example 20, 2-[(1R)-1-{5-[3-chloro-2-fluoro-6-(1H-tetrazol-1-yl)phenyl]-1-oxidopyridin-2-yl}-2-phenylethyl]-5-fluoro-1H-benzimidazole]"
,335,38.2,,N#Cc1ccc(Cl)cc1-c1ccc(C(Cc2ccccc2)c2nc3cc(C(=O)O)ccc3[nH]2)[n+]([O-])c1 (racemic) [Example 17]
,182,46.2,,"O=C(O)c1ccc2[nH]c(C(Cc3ccccc3)c3ccc(-c4c(F)ccc(Cl)c4F)c[n+]3[O-])nc2c1 (stereo in doubt) [Example 2, (S)-2-(1-(5-Carboxy-1H-benzo[d]imidazol-2-yl)-2-phenylethyl)-5-(3-chloro-2,6-difluorophenyl)pyridine 1-oxide]"
,293,89.2,,"O=C(O)c1ccc2[nH]c(C(Cc3ccccc3)c3ccc(-c4c(F)ccc(Cl)c4F)c[n+]3[O-])nc2c1 (racemic) [Example 1, 2-(1-(5-Carboxy-1H-benzo[d]imidazol-2-yl)-2-phenylethyl)-5-(3-chloro-2,6-difluorophenyl)pyridine 1-oxide]"
,,1250,,[O-][n+]1cc(-c2c(F)ccc(Cl)c2F)ccc1C(Cc1ccccc1)c1nc2cc(F)ccc2[nH]1 (racemic) [Example 10]
7930,,,,O=C(O)c1ccc2nc(C(CC(=O)N3CCC3)c3ccc(-c4c(F)ccc(Cl)c4F)c[n+]3[O-])[nH]c2c1 (racemic) [Example 26]
,809,89.7,,[O-][n+]1cc(-c2cc(Cl)ccc2-n2cnnn2)ccc1[C@H](Cc1ccc(F)cc1)c1nc2cc(F)ccc2[nH]1 [Example 14]
,,160,,O=C(O)c1ccc2[nH]c([C@H](Cc3ccc(F)cc3)c3ccc(-c4c(F)ccc(Cl)c4F)c[n+]3[O-])nc2c1 [Example 12]
